Non-standard residues stand in square brackets, D forms with d. No end group written: not given here. pGlu = O=C1CC[C@@H](C(=O)O)N1
System: mouse epidermal mitotic rate
Assay: change in mouse epidermal mitotic rate after intraperitoneal injection (Colcemid method)
Type: in vivo
Conditions: 10^-13 moles of peptide injected per mouse, first three hours after injection, versus control animals from the same cage
Method: In the following Table 1 the in vivo result (change in mouse epidermal mitotic rate) has been described as an example for one of the dipeptides. The epidermal mitotic rate was measured for the first three hours after intraperitoneal injection of the dipeptide. Mitotic rate was determined by means of "Colcemid". A reduced rate was determined as a percentage in comparison with control animals from the same cage.

## [pGlu]-Gly
  Decrease in mitotic rate: 40%

From US4868156A, “Pharmaceutical preparation containing a dipeptide with cell growth regulating effect” (Bio-Tech A/S, priority 1986, dated 1989)
